Data reported in the NIST ThermoML archive (doi:10.1016/j.jct.2011.06.020).

Test: xn = mol fraction of the nth substance listed
Conditions: for surface tension liquid-gas: Tensiometer with plate; for viscosity / mass density: 101 kPa, Liquid; for viscosity: Capillary tube (Ostwald / Ubbelohde) method; for mass density: Vibrating tube method

CN1CCNCC1 [N-methylpiperazine] + O
Conditions | mass density [kg/m3] | surface tension liquid-gas [mN/m] | viscosity [mPa·s]
293.15 K, x1 = 0.1 | – | 47.64 | –
293.15 K, x1 = 0.1998 | – | 43.4 | –
293.15 K, x1 = 0.2994 | – | 38.68 | –
293.15 K, x1 = 0.4073 | – | 35.89 | –
293.15 K, x1 = 0.4983 | – | 34.37 | –
293.15 K, x1 = 0.5934 | – | 33.18 | –
293.15 K, x1 = 0.6979 | – | 32.35 | –
293.15 K, x1 = 0.7994 | – | 31.68 | –
293.15 K, x1 = 0.8978 | – | 31.15 | –
293.15 K, x1 = 1 | – | 30.65 | –
298.15 K, x1 = 0.0521 | 1001.67 | – | 3.324
298.15 K, x1 = 0.0725 | 1005.26 | – | 5.564
298.15 K, x1 = 0.1039 | 1009.54 | – | 10.76
298.15 K, x1 = 0.2091 | 1001.33 | – | 35.24
298.15 K, x1 = 0.3101 | 981.31 | – | 36.42
298.15 K, x1 = 0.4096 | 962.21 | – | 23.48
298.15 K, x1 = 0.5109 | 946.41 | – | 13.36
298.15 K, x1 = 0.608 | 933.25 | – | 7.957
298.15 K, x1 = 0.7065 | 922.31 | – | 4.893
298.15 K, x1 = 0.8069 | 913.72 | – | 3.383
298.15 K, x1 = 0.8819 | 906.76 | – | 2.552
298.15 K, x1 = 1 | 898.81 | – | 1.87
303.15 K, x1 = 0.0521 | 999.31 | – | 2.752
303.15 K, x1 = 0.0725 | 1002.36 | – | 4.48
303.15 K, x1 = 0.1 | – | 46.73 | –
303.15 K, x1 = 0.1039 | 1005.87 | – | 8.223
303.15 K, x1 = 0.1998 | – | 42.1 | –
303.15 K, x1 = 0.2091 | 996.94 | – | 25.01
303.15 K, x1 = 0.2994 | – | 38.07 | –
303.15 K, x1 = 0.3101 | 976.94 | – | 25.74
303.15 K, x1 = 0.4073 | – | 35.25 | –
303.15 K, x1 = 0.4096 | 957.88 | – | 17.12
303.15 K, x1 = 0.4983 | – | 33.82 | –
303.15 K, x1 = 0.5109 | 942.03 | – | 10.17
303.15 K, x1 = 0.5934 | – | 32.73 | –
303.15 K, x1 = 0.608 | 928.88 | – | 6.246
303.15 K, x1 = 0.6979 | – | 31.78 | –
303.15 K, x1 = 0.7065 | 917.92 | – | 4.048
303.15 K, x1 = 0.7994 | – | 31.16 | –
303.15 K, x1 = 0.8069 | 909.33 | – | 2.835
303.15 K, x1 = 0.8819 | 902.37 | – | 2.188
303.15 K, x1 = 0.8978 | – | 30.7 | –
303.15 K, x1 = 1 | 894.43 | 30.34 | 1.618
308.15 K, x1 = 0.1 | – | 45.72 | –
308.15 K, x1 = 0.1998 | – | 40.74 | –
308.15 K, x1 = 0.2994 | – | 37.57 | –
308.15 K, x1 = 0.4073 | – | 34.71 | –
308.15 K, x1 = 0.4983 | – | 33.32 | –
308.15 K, x1 = 0.5934 | – | 32.06 | –
308.15 K, x1 = 0.6979 | – | 31.25 | –
308.15 K, x1 = 0.7994 | – | 30.8 | –
308.15 K, x1 = 0.8978 | – | 30.2 | –
308.15 K, x1 = 1 | – | 29.86 | –
313.15 K, x1 = 0.0521 | 994.17 | – | 1.987
313.15 K, x1 = 0.0725 | 996.21 | – | 3.048
313.15 K, x1 = 0.1 | – | 44.4 | –
313.15 K, x1 = 0.1039 | 998.34 | – | 5.183
313.15 K, x1 = 0.1998 | – | 39.61 | –
313.15 K, x1 = 0.2091 | 988.01 | – | 13.66
313.15 K, x1 = 0.2994 | – | 36.37 | –
313.15 K, x1 = 0.3101 | 968.03 | – | 13.97
313.15 K, x1 = 0.4073 | – | 34.03 | –
313.15 K, x1 = 0.4096 | 949.09 | – | 9.817
313.15 K, x1 = 0.4983 | – | 32.66 | –
313.15 K, x1 = 0.5109 | 933.18 | – | 6.25
313.15 K, x1 = 0.5934 | – | 31.58 | –
313.15 K, x1 = 0.608 | 920.04 | – | 4.118
313.15 K, x1 = 0.6979 | – | 30.76 | –
313.15 K, x1 = 0.7065 | 909.07 | – | 2.846
313.15 K, x1 = 0.7994 | – | 30.4 | –
313.15 K, x1 = 0.8069 | 900.47 | – | 2.091
313.15 K, x1 = 0.8819 | 893.54 | – | 1.673
313.15 K, x1 = 0.8978 | – | 29.71 | –
313.15 K, x1 = 1 | 885.62 | 29.23 | 1.302
318.15 K, x1 = 0.1 | – | 43.02 | –
318.15 K, x1 = 0.1998 | – | 38.31 | –
318.15 K, x1 = 0.2994 | – | 35.73 | –
318.15 K, x1 = 0.4073 | – | 33.43 | –
318.15 K, x1 = 0.4983 | – | 32.08 | –
318.15 K, x1 = 0.5934 | – | 30.99 | –
318.15 K, x1 = 0.6979 | – | 30.23 | –
318.15 K, x1 = 0.7994 | – | 29.83 | –
318.15 K, x1 = 0.8978 | – | 29.14 | –
318.15 K, x1 = 1 | – | 28.78 | –
323.15 K, x1 = 0.1 | – | 41.72 | –
323.15 K, x1 = 0.1998 | – | 37.83 | –
323.15 K, x1 = 0.2994 | – | 34.87 | –
323.15 K, x1 = 0.4073 | – | 32.92 | –
323.15 K, x1 = 0.4983 | – | 31.67 | –
323.15 K, x1 = 0.5934 | – | 30.57 | –
323.15 K, x1 = 0.6979 | – | 29.67 | –
323.15 K, x1 = 0.7994 | – | 29.24 | –
323.15 K, x1 = 0.8978 | – | 28.53 | –
323.15 K, x1 = 1 | – | 28.11 | –
325.15 K, x1 = 0.0521 | 988.47 | – | 1.5
325.15 K, x1 = 0.0725 | 989.64 | – | 2.188
325.15 K, x1 = 0.1039 | 990.55 | – | –
325.15 K, x1 = 0.2091 | 978.98 | – | 8.128
325.15 K, x1 = 0.3101 | 958.91 | – | 8.263
325.15 K, x1 = 0.4096 | 940.1 | – | –
325.15 K, x1 = 0.5109 | 924.16 | – | 4.171
325.15 K, x1 = 0.608 | 911.05 | – | 2.876
325.15 K, x1 = 0.7065 | 900.09 | – | 2.076
325.15 K, x1 = 0.8069 | 891.49 | – | 1.607
325.15 K, x1 = 0.8819 | 884.6 | – | 1.324
325.15 K, x1 = 1 | 876.71 | – | 1.065
333.15 K, x1 = 0.0521 | 982.25 | – | 1.18
333.15 K, x1 = 0.0725 | 982.66 | – | 1.651
333.15 K, x1 = 0.1 | – | 39.98 | –
333.15 K, x1 = 0.1039 | 982.5 | – | 2.474
333.15 K, x1 = 0.1998 | – | 36.47 | –
333.15 K, x1 = 0.2091 | 969.64 | – | 5.188
333.15 K, x1 = 0.2994 | – | 33.61 | –
333.15 K, x1 = 0.3101 | 949.58 | – | 5.244
333.15 K, x1 = 0.4073 | – | 31.68 | –
333.15 K, x1 = 0.4096 | 930.91 | – | 4.021
333.15 K, x1 = 0.4983 | – | 30.32 | –
333.15 K, x1 = 0.5109 | 914.98 | – | 2.894
333.15 K, x1 = 0.5934 | – | 29.76 | –
333.15 K, x1 = 0.608 | 901.91 | – | 2.109
333.15 K, x1 = 0.6979 | – | 28.76 | –
333.15 K, x1 = 0.7065 | 891 | – | 1.592
333.15 K, x1 = 0.7994 | – | 27.93 | –
333.15 K, x1 = 0.8069 | 882.42 | – | 1.277
333.15 K, x1 = 0.8819 | 875.57 | – | 1.09
333.15 K, x1 = 0.8978 | – | 27.7 | –
333.15 K, x1 = 1 | 867.73 | 27.17 | 0.9
343.15 K, x1 = 0.0521 | 975.55 | – | 0.942
343.15 K, x1 = 0.0725 | 975.29 | – | 1.281
343.15 K, x1 = 0.1039 | 974.18 | – | 1.827
343.15 K, x1 = 0.2091 | 960.1 | – | 3.514
343.15 K, x1 = 0.3101 | 940.04 | – | 3.54
343.15 K, x1 = 0.4096 | 921.51 | – | 2.81
343.15 K, x1 = 0.5109 | 905.65 | – | 2.12
343.15 K, x1 = 0.608 | 892.65 | – | 1.607
343.15 K, x1 = 0.7065 | 881.79 | – | 1.264
343.15 K, x1 = 0.8069 | 873.22 | – | 1.074
343.15 K, x1 = 0.8819 | 866.45 | – | 0.906
343.15 K, x1 = 1 | 858.66 | – | 0.768
